What was measured:
PIM1 = PIM1 (Homo sapiens, UniProt P11309); experiment: KinaseGlo Pim1 ATP depletion assay; format: biochemical
Outline: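 2.5 nM PIM1 preincubated 15 min with compound and 40 μM BAD peptide in 50 mM HEPES pH 7.5, 5 mM MgCl2, 1 mM DTT, 0.05% BSA, 2.5% DMSO. The reaction was started with 20 μM ATP (final) and run to about 50% ATP depletion. Remaining ATP read by KinaseGlo Plus luminescence to give IC50.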

PIM2 = PIM2 (Homo sapiens, UniProt Q9P1W9); experiment: KinaseGlo Pim2 ATP depletion assay; format: biochemical
Outline: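 Luminescent ATP-depletion read-out of PIM2 phosphorylating BAD peptide (RSRHSSYPAGT-OH). Final conditions: 5 nM PIM2, 4 μM ATP, 10 μM peptide, 2.5% DMSO in 50 mM HEPES pH 7.5, 5 mM MgCl2, 1 mM DTT, 0.05% BSA. Enzyme–peptide preincubated 15 min with compound; reaction run to ~50% ATP depletion.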

PIM3 = PIM3 (Homo sapiens, UniProt Q86V86); experiment: KinaseGlo Pim3 ATP depletion assay; format: biochemical
Outline: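 Kinase was preincubated 15 min with BAD peptide in HEPES pH 7.5/MgCl2/DTT/BSA before ATP was added. Final concentrations were 40 μM ATP, 100 μM BAD peptide and 2.5% DMSO, with 5 nM enzyme. The reaction ran to ~50% ATP depletion and remaining ATP was read by KinaseGlo Plus luminescence.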

GSK3β = GSK3β (Homo sapiens, UniProt P49841); experiment: GSK3β ATP depletion assay; format: biochemical; conditions: read-out: GSK3b IC50
Outline: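 Human GSK3β (5 nM) preincubated 15 min with 10 μM biotinylated phospho-CREB peptide in pH 7.5 Tris buffer (15 mM MgCl2, 1 mM DTT, 0.1% BSA, 2.5% DMSO). Reaction started with 2 μM ATP and run to about 50% ATP depletion. Remaining ATP measured by KinaseGlo luminescence.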

[1] = tested on: KMS11 (human myeloma cell line); experiment: Cell proliferation assay (CellTiter-Glo), KMS11; format: cell-based; conditions: Homo sapiens, KMS-11; KMS11-Luc cells
Outline: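 KMS11 cells in IMDM with 10% FBS and sodium pyruvate, seeded at 2000 cells/well on assay day. Compound added at 2× to equal volume of cells, incubated 3 days at 37° C. Viability read by CellTiter-Glo luminescence; EC50 derived.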

Chain of GSK3β (P49841 whole entry, species assumed): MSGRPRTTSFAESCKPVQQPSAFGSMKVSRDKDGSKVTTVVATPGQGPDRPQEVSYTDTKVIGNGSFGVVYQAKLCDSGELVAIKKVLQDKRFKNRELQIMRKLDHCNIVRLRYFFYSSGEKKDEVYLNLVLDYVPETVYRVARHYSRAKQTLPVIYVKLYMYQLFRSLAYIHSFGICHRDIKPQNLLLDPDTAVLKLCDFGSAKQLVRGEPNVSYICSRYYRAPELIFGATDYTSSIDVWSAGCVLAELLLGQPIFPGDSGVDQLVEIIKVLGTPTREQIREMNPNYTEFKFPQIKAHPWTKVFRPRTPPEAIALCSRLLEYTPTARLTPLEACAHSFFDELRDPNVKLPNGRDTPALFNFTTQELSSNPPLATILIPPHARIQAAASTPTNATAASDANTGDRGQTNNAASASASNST
Chain of PIM2 (Q9P1W9 whole entry): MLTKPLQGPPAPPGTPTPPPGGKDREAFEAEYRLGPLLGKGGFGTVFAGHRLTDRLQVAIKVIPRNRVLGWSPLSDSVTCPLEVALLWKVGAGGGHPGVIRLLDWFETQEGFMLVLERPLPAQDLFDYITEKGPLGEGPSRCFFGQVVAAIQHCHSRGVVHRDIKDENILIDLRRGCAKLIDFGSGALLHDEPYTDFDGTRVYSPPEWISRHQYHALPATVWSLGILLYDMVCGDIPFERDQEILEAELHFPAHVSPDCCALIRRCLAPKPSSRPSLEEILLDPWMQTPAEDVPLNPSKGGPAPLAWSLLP
Chain of PIM1 (P11309 whole entry): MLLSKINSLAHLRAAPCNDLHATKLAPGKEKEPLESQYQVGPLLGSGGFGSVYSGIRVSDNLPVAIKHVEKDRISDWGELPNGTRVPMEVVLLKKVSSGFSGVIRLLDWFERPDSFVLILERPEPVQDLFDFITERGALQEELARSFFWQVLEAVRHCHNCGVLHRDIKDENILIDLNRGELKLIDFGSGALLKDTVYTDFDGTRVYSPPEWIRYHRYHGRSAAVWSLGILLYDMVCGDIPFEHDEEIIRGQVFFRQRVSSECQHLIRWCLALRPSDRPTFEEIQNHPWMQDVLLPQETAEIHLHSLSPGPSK

Row | Compound | IC50 (PIM1) | IC50 (PIM2) | IC50 (PIM3) | IC50 (GSK3β) | EC50 [1]
1 | O=C(Nc1cnccc1[C@H]1C[C@@H](O)[C@@]2(O)CCC[C@H]2O1)c1ccc(F)c(-c2c(F)cccc2F)n1 [Example 204, 6-(2,6-difluorophenyl)-N-(4-((2R,4R,4aS,7aR)-4,4a-dihydroxyoctahydrocyclopenta[b]pyran-2-yl)pyridin-3-yl)-5-fluoropicolinamide] | 0.5 nM | 2.8 nM | 2 nM | 46.2 nM | 5310 nM
2 | O=C(Nc1cnccc1[C@H]1C[C@@H](O)[C@@]2(O)CCC[C@H]2O1)c1c[nH]cc(-c2ccccc2)c1=O [Example 181, N-(4-((2R,4R,4aS,7aR)-4,4a-dihydroxyoctahydrocyclopenta[b]pyran-2-yl)pyridin-3-yl)-4-oxo-5-phenyl-1,4-dihydropyridine-3-carboxamide] | 825 nM | 9100 nM | 492 nM | 4210 nM | > 10000 nM
3 | C[C@@H]1O[C@H](c2ccncc2NC(=O)c2ccc(F)c(-c3c(F)cccc3F)n2)C[C@@H](O)[C@H]1O [Example 107, 6-(2,6-difluorophenyl)-N-(4-((2S,4R,5R,6S)-4,5-dihydroxy-6-methyltetrahydro-2H-pyran-2-yl)pyridin-3-yl)-5-fluoropicolinamide] | 2 nM | 20 nM | 4 nM | 196 nM | 5900 nM
4 | O=C(Nc1cnccc1[C@@H]1C[C@H](O)[C@@H](O)[C@H](C2CC2)O1)c1ccc(F)c(-c2c(F)cccc2F)n1 [Example 209, N-(4-((2S,4S,5R,6S)-6-cyclopropyl-4,5-dihydroxytetrahydro-2H-pyran-2-yl)pyridin-3-yl)-6-(2,6-difluorophenyl)-5-fluoropicolinamide] | 3.2 nM | 7.9 nM | 4.2 nM | 1060 nM | 9500 nM
5 | CC[C@H]1O[C@@H](c2ncncc2NC(=O)c2ccc(F)c(-c3c(F)cccc3F)n2)C[C@@H](O)[C@@H]1O [Example 162, 6-(2,6-difluorophenyl)-N-(4-((2R,4R,5S,6R)-6-ethyl-4,5-dihydroxytetrahydro-2H-pyran-2-yl)pyrimidin-5-yl)-5-fluoropicolinamide] | 216 nM | 818 nM | 178 nM | 13500 nM | > 10000 nM
6 | C[C@H]1OC(c2ccncc2NC(=O)c2nc(-c3c(F)cccc3F)ncc2N)=C[C@@H](O)[C@]1(C)O [Example 11, 5-amino-2-(2,6-difluorophenyl)-N-(4-((2R,3S,4R)-3,4-dihydroxy-2,3-dimethyl-3,4-dihydro-2H-pyran-6-yl)pyridin-3-yl)pyrimidine-4-carboxamide] | 0.7 nM | 1.4 nM | 1.8 nM | 718 nM | 718 nM
7 | C=C1[C@H](O)C[C@H](c2ccncc2NC(=O)c2ccc(F)c(-c3c(F)cccc3F)n2)OC12CC2 [Example 9, 6-(2,6-difluorophenyl)-5-fluoro-N-(4-((5R,7R)-7-hydroxy-8-methylene-4-oxaspiro[2.5]octan-5-yl)pyridin-3-yl)picolinamide] | 4.9 nM | 154 nM | 25 nM | 453 nM | > 10000 nM
8 | C=C1[C@@H](O)C[C@@H](c2ccncc2NC(=O)c2nc(-c3c(F)cccc3F)ncc2N)OC12CC2 [Example 6, 5-amino-2-(2,6-difluorophenyl)-N-(4-((5S,7S)-7-hydroxy-8-methylene-4-oxaspiro[2.5]octan-5-yl)pyridin-3-yl)pyrimidine-4-carboxamide] | 70 nM | 280 nM | 53.6 nM | 720 nM | > 10000 nM
9 | CC[C@H]1O[C@@H](c2ccncc2NC(=O)c2nc(-c3c(F)cccc3F)c(F)cc2N)C[C@@H](O)[C@]1(C)O [Example 166, 3-amino-6-(2,6-difluorophenyl)-N-(4-((2R,4R,5S,6R)-6-ethyl-4,5-dihydroxy-5-methyltetrahydro-2H-pyran-2-yl)pyridin-3-yl)-5-fluoropicolinamide] | 0.6 nM | 1.2 nM | 1.5 nM | 1680 nM | 1330 nM
10 | C[C@@H]1O[C@H](c2ccncc2NC(=O)c2csc(-c3c(F)cccc3F)n2)C[C@H](O)[C@@]1(C)O (stereo in doubt) [Example 111, 2-(2,6-difluorophenyl)-N-(4-((2S,4S,5R,6S)-4,5-dihydroxy-5,6-dimethyltetrahydro-2H-pyran-2-yl)pyridin-3-yl)thiazole-4-carboxamide] | 1 nM | 43 nM | 2 nM | 26 nM | > 10000 nM
11 | CC[C@]1(O)[C@H](O)C[C@H](c2ccncc2NC(=O)c2nc(-c3ccccc3)cnc2N)O[C@@H]1C [Example 15, 3-amino-N-(4-((2R,4R,5S,6R)-5-ethyl-4,5-dihydroxy-6-methyltetrahydro-2H-pyran-2-yl)pyridin-3-yl)-6-phenylpyrazine-2-carboxamide] | 1 nM | 8 nM | 2 nM | 1 nM | 184 nM
12 | C[C@@H]1O[C@H](c2ccncc2NC(=O)c2ccc(F)c(-c3c(F)cccc3F)n2)C[C@H](O)[C@H]1O [Example 120, 6-(2,6-difluorophenyl)-N-(4-((2S,4S,5R,6S)-4,5-dihydroxy-6-methyltetrahydro-2H-pyran-2-yl)pyridin-3-yl)-5-fluoropicolinamide] | 2 nM | 12 nM | 3 nM | 798 nM | > 10000 nM
13 | C[C@@H]1O[C@H](c2ccncc2NC(=O)c2csc(-c3c(F)cccc3F)n2)C[C@H](N)[C@H]1O [Example 113, N-(4-((2S,4S,5R,6S)-4-amino-5-hydroxy-6-methyltetrahydro-2H-pyran-2-yl)pyridin-3-yl)-2-(2,6-difluorophenyl)thiazole-4-carboxamide] | 5 nM | 142 nM | 11 nM | 64 nM | > 10000 nM
14 | N#C[C@H]1O[C@@H](c2ccncc2NC(=O)c2nc(-c3c(F)cccc3F)ncc2N)C[C@@H](O)[C@@H]1O [Example 148, 5-amino-N-(4-((2R,4R,5S,6R)-6-cyano-4,5-dihydroxytetrahydro-2H-pyran-2-yl)pyridin-3-yl)-2-(2,6-difluorophenyl)pyrimidine-4-carboxamide] | 29.7 nM | 30.3 nM | 20.4 nM | 691 nM | > 10000 nM
15 | C[C@H]1O[C@@H](c2ccncc2NC(=O)c2ccc(F)c(-c3c(F)cccc3F)n2)C[C@@H](O)[C@]1(C)O (stereo in doubt) [Example 110, 6-(2,6-difluorophenyl)-N-(4-((2R,4R,5S,6R)-4,5-dihydroxy-5,6-dimethyltetrahydro-2H-pyran-2-yl)pyridin-3-yl)-5-fluoropicolinamide] | 19 nM | 347 nM | 16 nM | 659 nM | > 10000 nM
16 | O=C(Nc1cnccc1C1=C[C@@H](O)[C@H](O)[C@@H](CCl)O1)c1ccnc(-c2c(F)cccc2F)n1 [Example 28, N-(4-((2S,3S,4R)-2-(chloromethyl)-3,4-dihydroxy-3,4-dihydro-2H-pyran-6-yl)pyridin-3-yl)-2-(2,6-difluorophenyl)pyrimidine-4-carboxamide] | 2 nM | 7 nM | 3 nM | 22 nM | 808 nM
17 | O=C(Nc1cnccc1[C@@H]1C[C@H](O)[C@]2(O)CCCC[C@@H]2O1)c1ccnn(-c2ccccc2F)c1=O [Example 191, N-(4-((2S,4S,4aR,8aS)-4,4a-dihydroxyoctahydro-2H-chromen-2-yl)pyridin-3-yl)-2-(2-fluorophenyl)-3-oxo-2,3-dihydropyridazine-4-carboxamide] | 1780 nM | > 25000 nM | 2370 nM | 1080 nM | > 10000 nM
18 | N[C@H]1C[C@@H](c2ccncc2NC(=O)c2ccc(F)c(-c3c(F)cccc3F)n2)O[C@H]2CCC[C@]21O [Example 212, N-(4-((2S,4S,4aR,7aS)-4-amino-4a-hydroxyoctahydrocyclopenta[b]pyran-2-yl)pyridin-3-yl)-6-(2,6-difluorophenyl)-5-fluoropicolinamide] | 17.9 nM | 508 nM | 155 nM | 11500 nM | 3360 nM
